Laboratory results published in paper PMC8962251 (Biomedicines, 2022).
Bridges are numbered along the chain shown (N, C = ends). Roman numbers before positions name the chains, in order. [ ]: non-standard residue; d: D form. GABA = NCCCC(=O)O

Legend:
[1] = target: SARS-CoV-2 S1S2 spike interaction with hACE2 (Severe acute respiratory syndrome coronavirus 2, UniProt P0DTC2); type: binding, SARS-CoV-2; human
[2] = target: SARS-CoV-2 RBD (Severe acute respiratory syndrome coronavirus 2, UniProt P0DTC2); type: binding
[3] = target: SARS-CoV-2 S1S2 monomer (Severe acute respiratory syndrome coronavirus 2, UniProt P0DTC2); type: binding
[4] = target: SARS-CoV-2 S1S2 trimer (Severe acute respiratory syndrome coronavirus 2, UniProt P0DTC2); type: binding
[5] = tested on: pre-formed complex of SARS-CoV-2 S1S2 monomer and hACE2; type: binding, SARS-CoV-2; human

Compound | saturation level of the inhibitory effect (% of S1S2 binding level without compound) [1] | steady-state reduction of S1S2 binding signal to hACE2 [1] | % of theor. Rmax [2] | complex stability increase compared with CVRBDL-3 (factor) [2] | % of theor. Rmax [3] | complex stability increase compared with CVRBDL-3 (factor) [3] | % of theor. Rmax [4] | complex stability increase compared with CVRBDL-3 (factor) [4] | increase of inhibition efficiency compared with CVRBDL-3 (factor) [1] | maximum displacement compared with CVRBDL-3 (factor) [5] | DC50 ([5]; read-out: DC50 (compound concentration where 50% of the maximum displacement is reached))
C[C@@H](O)[C@H](NC(=O)[C@H](Cc1c[nH]c2ccccc12)NC(=O)[C@@H](NC(=O)[C@H](CC(=O)O)NC(=O)[C@H](CC(N)=O)NC(=O)[C@H](CCCCN)NC(=O)[C@H](CCCCN)NC(=O)[C@H](CC(=O)O)NC(=O)[C@H](Cc1ccc(O)cc1)NC(=O)[C@H](CCC(=O)O)NC(=O)[C@H](Cc1c[nH]c2ccccc12)NC(=O)[C@H](Cc1c[nH]c2ccccc12)NC(=O)[C@H](Cc1ccccc1)NC(=O)[C@H](CC(=O)O)NC(=O)[C@@H](N)Cc1c[nH]cn1)[C@@H](C)O)C(=O)N[C@@H](CCCNC(=N)N)C(=O)N[C@@H](CCCNC(=N)N)C(=O)N[C@@H](CCCNC(=N)N)C(=O)N[C@@H](CCCNC(=N)N)C(N)=O [CVRBDL-3] | ~ 58% | ~ 33% |  |  |  |  |  |  |  |  | 
I: H-HDFWWEYDKKNDTWTR[GABA]R[GABA]RK-NH2 / II: H-HDFWWEYDKKNDTWTR[GABA]R[GABA]R (amide I:21-II:C) [CVRBDL-3_3] |  |  | 65% | ~ 2 | 104% | ~ 2.5 | 76% | ~ 2.5 | ~ 11 | 1.6 | 417 nM
